Earlier results in PMC3836577 (Microbial Biotechnology, 2010).
Ends that are not written are not given here.

Test system: S. aureus Sa113
Conditions: literature value for comparison; ref Peschel et al., 2001

nisin (ITSISLCTPGCKTGALMGCNMKTATCHCSIHVSK; also: lantibiotic thioether rings and dehydrated residues not placed; UniProt P13068 24-57, looked up)
Activity against Sa113 (MIC): 14 µM
